This is an account of results in patent US11400138B2, “Method for improving skin condition with bioactive compound” (TCI CO., LTD., priority 2020, dated 2022).

Assay type in all cases: cell-based
Holding throughout (conditions): 12.5 μg synthesized peptide per 1 mL cell culture medium, 24 h, 37° C.

The test system of one experiment is TIMP1 gene. Put plainly: TIMP1 gene expression in human fibroblasts (CCD-966SK), qPCR. As to the method:
(§1) In order to confirm the effect of each of the amino acid sequences on gene expression in cells, human fibroblasts (CCD-966SK) and individual peptides were co-cultured, and then, gene expression in the cells was analyzed. 11 types of synthesized peptides were respectively subjected to cell experiments. In addition, the amino acid sequences of 11 types of synthesized peptides were respectively SEQ ID NO: 1, SEQ ID NO: 2, SEQ ID NO: 3, SEQ ID NO: 4, SEQ ID NO: 5, SEQ ID NO: 6, SEQ ID NO: 7, SEQ ID NO: 8, SEQ ID NO: 9, SEQ ID NO: 10 and SEQ ID NO: 11. Hereafter, the sequence numbers SEQ ID NO: 1 to SEQ ID NO: 11 will be referred to as groups.
(§2) Cell gene expression test refers to that after the human fibroblasts (purchased from Food Industry Research and Development Institute) and samples to be tested (such as peptides or compositions) were co-cultured, then, RNA in the cells was collected for analysis. Referring to Table 3, the gene expression test groups were divided into 13 groups. 11 groups therein were peptide experiment groups (Experiment group A to Experiment group K), 1 group was a composition experiment group (Experiment group L), and 1 group was a control group. In addition, each group was co-cultured with 1×10^5 human fibroblasts in a cell culture plate containing 2 mL of cell culture medium (X-VIVO™ 10). Experiment group A to Experiment group K respectively corresponded to 11 groups of peptide experiment groups of 11 types of synthesized peptides (SEQ ID NO: 1, SEQ ID NO: 2, SEQ ID NO: 3, SEQ ID NO: 4, SEQ ID NO: 5, SEQ ID NO: 6, SEQ ID NO: 7, SEQ ID NO: 8, SEQ ID NO: 9, SEQ ID NO: 10 and SEQ ID NO: 11) prepared according to Example III. Experiment group L was a composition experiment group added with the composition. In addition, the composition was identified in Example II to be tilapia fish skin collagen peptide powder (purchased from LAPI, Italy) including […] of peptides (i.e., SEQ ID NO: 1, SEQ ID NO: 2, SEQ ID NO: 3, SEQ ID NO: 4, SEQ ID NO: 5 and SEQ ID NO: 6). No peptide or composition was added in Control group.
For each group of peptide experiment groups (corresponding to Experiment group A to Experiment group K), according to a proportion of 12.5 μg of synthesized peptide per 1 mL of cell culture medium, the human fibroblasts were cultured for 24 h at 37° C. For the composition experiment group (corresponding to Experiment group L), according to a proportion of 100 mg of composition per 1 mL of cell culture medium, the human fibroblasts were cultured for 24 h. For Control group, no peptide was added, and the human fibroblasts were cultured for 24 h in a pure cell culture medium. In addition, after culture for 24 h, the peptide-containing cell culture medium or the pure culture medium was removed from each group, and cells in each group were washed by a phosphate buffer solution (PBS) so as to remove the residual culture medium. […] In addition, the primers firstly reacted by a green fluorescent dye of SYBR green dye (Applied Biosystem), and quantification of gene expression was performed by a 2-ΔΔCt method. It should be noted that the gene expression in the drawings corresponding to the experiments was shown in relative fold or percentage, wherein standard deviations were calculated by an STDEV formula of Excel software, and statistically significant differences were analyzed by one-tailed student t-test in the Excel software. […]
(In general: Real-time PCR tracks product formation cycle by cycle.)

The test system of the next experiment is FBN1 gene. Put plainly: FBN1 gene expression in human fibroblasts (CCD-966SK), qPCR. The procedure: as §1, §2
For each group of peptide experiment groups (corresponding to Experiment group A to Experiment group K), according to a proportion of 12.5 μg of synthesized peptide per 1 mL of cell culture medium, the human fibroblasts were cultured for 24 h at 37° C. For the composition experiment group (corresponding to Experiment group L), according to a proportion of 100 mg of composition per 1 mL of cell culture medium, the human fibroblasts were cultured for 24 h. For Control group, no peptide was added, and the human fibroblasts were cultured for 24 h in a pure cell culture medium. In addition, after culture for 24 h, the peptide-containing cell culture medium or the pure culture medium was removed from each group, and cells in each group were washed by a phosphate buffer solution (PBS) so as to remove the residual culture medium. The washed cells were spun down and were subjected to cell lysis by a cell lysis solution (purchased from Geneaid company, Taiwan). Then, RNA in each group of cells was extracted by an RNA extraction kit (purchased from Geneaid company, Taiwan). Next, the extracted RNA was subjected to inverse transcription to obtain cDNA by a cDNA synthesis reagent (purchased from Geneaid company, Taiwan). In addition, the intracellular gene expression was observed by a polymerase chain reaction (PCR) instrument using different primers (as shown in Table 3). In addition, the primers firstly reacted by a green fluorescent dye of SYBR green dye (Applied Biosystem), and quantification of gene expression was performed by a 2-ΔΔCt method. It should be noted that the gene expression in the drawings corresponding to the experiments was shown in relative fold or percentage, wherein standard deviations were calculated by an STDEV formula of Excel software, and statistically significant differences were analyzed by one-tailed student t-test in the Excel software. […]

A further experiment deals with LOX gene. Put plainly: LOX gene expression in human fibroblasts (CCD-966SK), qPCR. The procedure: as §1
as §2, with “No peptide or composition was added in Control group.” left out
(§3) For each group of peptide experiment groups (corresponding to Experiment group A to Experiment group K), according to a proportion of 12.5 μg of synthesized peptide per 1 mL of cell culture medium, the human fibroblasts were cultured for 24 h at 37° C. […] In addition, the primers firstly reacted by a green fluorescent dye of SYBR green dye (Applied Biosystem), and quantification of gene expression was performed by a 2-ΔΔCt method. It should be noted that the gene expression in the drawings corresponding to the experiments was shown in relative fold or percentage, wherein standard deviations were calculated by an STDEV formula of Excel software, and statistically significant differences were analyzed by one-tailed student t-test in the Excel software. […]

The test system of another experiment is MMP2 gene. Kind of experiment: MMP2 gene expression in human fibroblasts (CCD-966SK), qPCR. The procedure: as §1, with “groups. […]” for “groups.”
as §3

As to “PGQPGLSGVPGADGKPGLPGP (listed as Oreochromis mossambicus) [SEQ ID NO: 8, synthesized peptide of tilapia skin, Collagen, type XVIII]”, in the experiment with TIMP1 gene, the “TIMP1 gene expression level, folds of Control group” value (“TIMP1 gene expression level, folds” below) was “about 5 folds”. Besides, the “FBN1 gene expression level, folds of Control group” value (from here on “FBN1 gene expression level, folds”) in the experiment on FBN1 gene is given as “about 9 folds”.
On to “GLPGVQGNI (listed as Oreochromis mossambicus) [SEQ ID NO: 2, synthesized peptide of tilapia skin, Collagen, type IV]”, for which, in the experiment on TIMP1 gene, the “TIMP1 gene expression level, folds” value is “about 7.8 folds”. Besides, in the experiment on LOX gene, the “LOX gene expression level, folds of Control group” value (“LOX gene expression level, folds” below) is “about 5.7 folds”. Moreover, the “FBN1 gene expression level, folds” value in the experiment with FBN1 gene is given as “about 6 folds”.
As to “ALVQNREGP (listed as Oreochromis mossambicus) [SEQ ID NO: 6, synthesized peptide of tilapia skin, Collagen, type VII]”, in the experiment with TIMP1 gene, the “TIMP1 gene expression level, folds” value is on record as “about 3 folds”. For the same substance, the “FBN1 gene expression level, folds” value with FBN1 gene was “about 5 folds”.
“AVNGLTLAGGRGLNTGAALT (listed as Oreochromis mossambicus) [SEQ ID NO: 5, synthesized peptide of tilapia skin, Collagen, type VI]”: in the experiment on LOX gene, the “LOX gene expression level, folds” value is on record as “about 2.5 folds”. Also, the “FBN1 gene expression level, folds” value in the experiment with FBN1 gene was “about 6 folds”.
On to “DQGIRLL (listed as Oreochromis mossambicus) [SEQ ID NO: 10, synthesized peptide of Plectin b]”, for which the “FBN1 gene expression level, folds” value with FBN1 gene was “about 6 folds”.
In the case of “NGLPGSPGLP GRQGE (NGLPGSPGLPGRQGE; listed as Oreochromis mossambicus) [SEQ ID NO: 7, synthesized peptide of tilapia skin, Collagen, type XII]”, in the experiment with FBN1 gene, the “FBN1 gene expression level, folds” value is reported as “about 5 folds”.
As to “PGPMGPMGINGA (listed as Oreochromis mossambicus) [SEQ ID NO: 4, synthesized peptide of tilapia skin, Collagen, type V]”, the “FBN1 gene expression level, folds” value with FBN1 gene is “about 16 folds”.
With “MFGKDVW (listed as Oreochromis mossambicus) [SEQ ID NO: 9, synthesized peptide of N-acetylglucosamine-1-phosphotransferase subunits alpha/beta]”, in the experiment on TIMP1 gene, the “TIMP1 gene expression level, folds” value is on record as “about 3 folds”. In addition, in the experiment with LOX gene, the “LOX gene expression level, folds” value was “about 2.5 folds”. In addition, in the experiment with FBN1 gene, the “FBN1 gene expression level, folds” value is on record as “about 4 folds”.
The matching figures for “QRGEPGPNGAV (listed as Oreochromis mossambicus) [SEQ ID NO: 11, synthesized peptide of tilapia skin, Procollagen, type I]”: “about 5 folds”, “about 3 folds” and “about 5 folds”.
Take “IGIFGQTGPPGE (listed as Oreochromis mossambicus) [SEQ ID NO: 3, synthesized peptide of tilapia skin, Collagen, type IV]”: the “FBN1 gene expression level, folds” value in the experiment with FBN1 gene is reported as “about 3 folds”. Moreover, in the experiment on MMP2 gene, the “MMP2 gene expression inhibition” value was “about 60%” and the “MMP2 gene expression percentage (Control group regarded as 100%)” value was “about 40%”.
